What was measured:
Format in all cases: cell-based
hMPV A2 TN/94-49 [1] = assay: HMPV antiviral assay Method 2 (LLC-MK2 cells with CP-100-356, ATP-Lite); details: hMPV A2 TN/94-49, LLC-MK2 cells, 4 μM CP-100-356, Method 2
How it was run: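 LLC-MK2 cells infected in suspension with hMPV A2 TN/94-49 at MOI 0.16, in serum-free OptiMEM with final 2 μg/mL TPCK-trypsin and 2 μM CP-100-356 (P-gp inhibitor). Compounds tested in duplicate, top 200 nM, 2.5-fold, 10 points; 7 days at 37 °C. ATP-Lite cell health normalised to controls; EC50 by four-parameter fit.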

[2] = system: HUMAN RSV-A (“LONG” STRAIN); assay: RSV-A assay (CPE, ATPlite) in Hep-2 cells; details: human respiratory syncytial virus, 120 h, MOI 0.1, 5-day incubation
How it was run: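 Hep-2 cells (8,000/well) given 2-fold serial compound dilutions in duplicate, then infected with RSV-A Long strain at MOI 0.1. After 5 days, virus-induced cytopathic effect quantified as cellular ATP by ATPlite luminescence, against virus-only and uninfected controls; EC50 reported in ranges.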

hMPV A2 TN/94-49 [3] = assay: HMPV antiviral assay Method 1 (LLC-MK2 cells, ATP-Lite); details: hMPV A2 TN/94-49, LLC-MK2 cells
How it was run: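 LLC-MK2 cells infected in suspension with hMPV A2 TN/94-49 at MOI 0.005, 5,000 cells/well, in serum-free OptiMEM with 2 μg/mL TPCK-trypsin (final) and CaCl2; compounds in duplicate, 10 points, 2 μM top, 2.5-fold dilutions. After 7 days at 37 °C, cell health by ATP-Lite luminescence; EC50 by four-parameter fit.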

Row | Compound | EC50 (hMPV A2 TN/94-49 [1]) [nM] | EC50 [2] [nM] | EC50 (hMPV A2 TN/94-49 [3]) [nM]
1 | COc1cc(C(=O)NC[C@@](O)(c2ccc(F)cc2)c2cc3c(c(-c4ccc(F)c(Cl)c4Cl)n2)OC[C@]3(C)C(N)=O)cc2cn(C3(F)CC3)nc12 [Example 43] | < 200 | < 200 | < 500
2 | COc1cc(C(=O)NC[C@@](O)(c2ccccc2)c2cc3c(c(-c4cc(Cl)c(F)cc4F)n2)OC[C@]3(C)C(N)=O)cc2cc(C3CC3)nnc12 [Example 90] | < 200 | < 200 | < 500
3 | C[C@]1(C(N)=O)COc2c1cc([C@@](O)(CNC(=O)c1cc(OC3CC3)c3nn(C(F)F)cc3c1)C1CC(F)(F)C1)nc2-c1cc(F)c(F)cc1F [Example 34] | < 200 | < 200 | < 500
4 | COc1cc(C(=O)NC[C@@](O)(c2cccc(F)c2)c2cc3c(c(-c4ccc5c(c4Cl)OC(F)(F)O5)n2)OC[C@]3(C)C(N)=O)cc2cn(C(F)F)nc12 [Example 276] | < 200 | < 200 | < 500
5 | COc1cc(C(=O)NC[C@@](O)(c2ccc(F)cc2)c2cc3c(c(-c4cc(Cl)c(F)cc4F)n2)OC[C@]3(C)C(N)=O)cc2cn(C3CC3)nc12 [Example 12] | < 200 | < 200 | < 500
6 | COc1cccc([C@](O)(CNC(=O)c2cc(OC)c3nn(C4CC4)cc3c2)c2cc3c(c(-c4cc(Cl)c(F)cc4F)n2)OC[C@]3(C)C(N)=O)c1 [Example 160] | < 200 | < 200 | < 500
7 | COc1ccc([C@](O)(CNC(=O)c2cc(OC)c3nn(C4CC4)cc3c2)c2cc3c(c(-c4cc(Cl)c(F)cc4F)n2)OC[C@]3(C)C(N)=O)cc1 [Example 165] | < 200 | < 200 | < 500
8 | COc1cc(C(=O)NC[C@@](O)(c2ccccc2)c2cc3c(c(-c4cccc(Cl)c4Cl)n2)OC[C@]3(C)C(N)=O)cc2cn(C3(F)CC3)nc12 [Example 262] | < 200 | < 200 | < 500
9 | CCc1cc(-c2nc([C@@](O)(CNC(=O)c3cc(OC)c4nn(C5CC5)cc4c3)C3CC3)cc3c2OC[C@]3(C)C(N)=O)ccc1F [Example 71] | > 200 | < 200 | > 500
10 | COc1cc(C(=O)NC[C@](O)(c2cc3c(c(-c4cc(F)c(F)cc4F)n2)OC[C@]3(C)C(N)=O)C2CC(F)(F)C2)cc2cn(C(F)F)nc12 [Example 33] | < 200 | < 200 | > 500
11 | COc1cc(C(=O)NC[C@@](O)(c2ccc(F)cc2)c2cc3c(c(-c4ccc5c(c4Cl)OC(F)(F)O5)n2)OC[C@]3(C)C(N)=O)cc2cn(C(F)F)nc12 [Example 264] | < 200 | < 200 | < 500
12 | COc1cc(C(=O)NC[C@@](O)(c2cccc(F)c2)c2cc3c(c(-c4cc(C(F)(F)F)c(F)cc4F)n2)OC[C@]3(C)C(N)=O)cc2cn(C3(F)CC3)nc12 [Example 296] | < 200 | < 200 | < 500
13 | COc1cc(C(=O)NC[C@@](O)(c2ccccc2)c2cc3c(c(-c4ccc(F)c(Cl)c4Cl)n2)OC[C@]3(C)C(N)=O)cc2cn(C(F)F)nc12 [Example 258] | < 200 | < 200 | < 500
14 | COc1cc(C(=O)NC[C@@](O)(c2cccc(F)c2)c2cc3c(c(-c4ccc(F)c(Cl)c4Cl)n2)OC[C@]3(C)C(N)=O)cc2cn(C3(F)CC3)nc12 [Example 269] | < 200 | < 200 | < 500
15 | COc1cc(C(=O)NC[C@@](O)(c2ccc(F)cc2)c2cc3c(c(-c4cc(Cl)c(F)cc4F)n2)OC[C@]3(C)C(N)=O)cc2cn(C3(F)CC3)nc12 [Example 14] | < 200 | < 200 | < 500
16 | COc1cc(C(=O)NC[C@@](O)(c2ccc(F)cc2)c2cc3c(c(-c4ccc5c(c4Cl)OC(F)(F)O5)n2)OC[C@]3(C)C(N)=O)cc2cn(C3(F)CC3)nc12 [Example 263] | < 200 | < 200 | < 500

Row | Compound | EC50 (hMPV A2 TN/94-49 [1]) [nM] | EC50 [2] [nM] | EC50 (hMPV A2 TN/94-49 [3]) [nM]
17 | C[C@]1(C(N)=O)COc2c1cc([C@@](O)(CNC(=O)c1ccc3nc(C4CC4)oc3c1)c1cccc(F)c1)nc2-c1ccc2c(c1Cl)OC(F)(F)O2 [Example 287] | < 200 | < 200 | < 500
18 | COc1cc(C(=O)NC[C@@](O)(c2ccccc2)c2cc3c(c(-c4cc(C(F)F)c(F)cc4F)n2)OC[C@]3(C)C(N)=O)cc2cn(C3(F)CC3)nc12 [Example 298] | < 200 | < 200 | < 500
19 | COc1cc(C(=O)NC[C@@](O)(c2ccc(F)cc2)c2cc3c(c(-c4ccc(F)c(Cl)c4Cl)n2)OC[C@]3(C)C(N)=O)cc2cn(C3CC3)nc12 [Example 41] | < 200 | < 200 | < 500
20 | COc1cc(C(=O)NC[C@](O)(c2cc3c(c(-c4cc(Cl)c(F)cc4F)n2)OC[C@]3(C)C(N)=O)c2nccs2)cc2cn(C3CC3)nc12 [Example 475] | < 200 | < 200 | < 500
21 | COc1cc(C(=O)NC[C@@](O)(c2ccccc2)c2cc3c(c(-c4cc(Cl)ccc4F)n2)OC[C@]3(C)C(N)=O)cc2cn(C3CC3)nc12 [Example 144] | < 200 | < 200 | < 500
22 | C[C@]1(C(N)=O)COc2c1cc([C@@](O)(CNC(=O)c1cc(OC3CC3)n3nc(C4CC4)cc3c1)C1CC1)nc2-c1cc(Cl)c(F)cc1F [Example 4] | < 200 | < 200 | < 500
23 | COc1cc(C(=O)NC[C@@](O)(c2ccccc2)c2cc3c(c(-c4cc(Cl)c(F)cc4F)n2)OC[C@]3(C)C(N)=O)cc2cc(C(F)F)nnc12 [Example 186] | < 200 | < 200 | > 500
24 | COc1cc(C(=O)NC[C@@](O)(c2ccccc2)c2cc3c(c(-c4ccc(F)c(Cl)c4Cl)n2)OC[C@]3(C)C(N)=O)cc2cn(C3(F)CC3)nc12 [Example 259] | < 200 | < 200 | < 500
25 | COc1cc(C(=O)NC[C@@](O)(c2cccc(F)c2)c2cc3c(c(-c4ccc5c(c4Cl)OC(F)(F)O5)n2)OC[C@]3(C)C(N)=O)cc2cn(C3(F)CC3)nc12 [Example 275] | < 200 | < 200 | < 500
26 | COc1cc(C(=O)NC[C@@](O)(c2cccc(F)c2)c2cc3c(c(-c4ccc(F)c(Cl)c4Cl)n2)OC[C@]3(C)C(N)=O)cc2cn(C(F)F)nc12 [Example 270] | < 200 | < 200 | < 500
27 | Cc1cnc2c(OC(F)F)cc(C(=O)NC[C@@](O)(c3ccccc3)c3cc4c(c(-c5cc(Cl)c(F)cc5F)n3)OC[C@]4(C)C(N)=O)cc2c1 [Example 183] | < 200 | < 200 | < 500
28 | COc1cc(C(=O)NC[C@@](O)(c2cccc(F)c2)c2cc3c(c(-c4cc(C(F)(F)F)c(F)cc4F)n2)OC[C@]3(C)C(N)=O)cc2oc(C3CC3)nc12 [Example 297] | < 200 | < 200 | < 500
29 | COc1cc(C(=O)NCC(O)(c2cc3c(c(-c4cc(Cl)c(F)cc4F)n2)OC[C@]3(C)C(N)=O)c2cc(C(F)F)cs2)cc2cn(C3CC3)nc12 (stereo partly drawn) [Example 468] | < 200 | < 200 | > 500
30 | COc1cc(C(=O)NC[C@](O)(c2cc3c(c(-c4ccc5c(c4)OC(F)(F)O5)n2)OC[C@]3(C)C(N)=O)C2CC2)cc2cc(C)c(F)nc12 [Example 22] | < 200 | < 200 | < 500
31 | C[C@]1(C(N)=O)COc2c1cc([C@@](O)(CNC(=O)c1ccc3nc(C4CC4)oc3c1)c1ccccc1)nc2-c1cc(Cl)c(F)cc1F [Example 88] | < 200 | < 200 | < 500
32 | COc1cc(C(=O)NC[C@@](O)(c2ccsc2)c2cc3c(c(-c4cc(F)c(F)cc4F)n2)OC[C@]3(C)C(N)=O)cc2cn(C3(F)CC3)nc12 [Example 179] | < 200 | < 200 | < 500

Reference: patent US12358921B2, “Antiviral heterocyclic compounds” (priority 2022, dated 2025)
